Experimental findings from patent US4603144A, “Kojic acid ether-ester derivatives” (G. D. Searle & Co., priority 1984, dated 1986) are described below.

What is called inhibition is the share of the control response that was lost under treatment. A high value points to a strong effect.

The test deals with T1, Human Leukocyte Elastase (HLE) (Homo sapiens, UniProt P08246).
T1 sequence (P08246 30-267): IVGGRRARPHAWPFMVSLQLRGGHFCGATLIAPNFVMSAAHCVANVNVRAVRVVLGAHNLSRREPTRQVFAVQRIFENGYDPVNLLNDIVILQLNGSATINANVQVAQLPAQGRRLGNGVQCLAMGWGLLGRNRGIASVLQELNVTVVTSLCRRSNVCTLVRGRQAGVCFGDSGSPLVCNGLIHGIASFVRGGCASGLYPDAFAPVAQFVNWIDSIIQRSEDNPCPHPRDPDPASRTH
Description: Inhibition of Human Leukocyte Elastase (HLE); hydrolysis of Methoxy-succinyl-Alanyl-Alanyl-Prolyl-Valyl-nitroanilide. It counts as biochemical. The note with it: for inhibition at 20 µM: 2.0 × 10^-5 Molar; for inhibition at 10 µM: 1.0 × 10^-5 Molar; for inhibition at 0.2 µM: 2.0 × 10^-7 Molar; for inhibition at 0.05 µM: 5.0 × 10^-8 Molar; for inhibition at 1 µM: 1.0 × 10^-6 Molar; for inhibition at 5 µM: 5.0 × 10^-6 Molar. As for the experimental part: Inhibition of Human Leukocyte Elastase (HLE)
This test measures the rate of hydrolysis of Methoxy-succinyl-Alanyl-Alanyl-Prolyl-Valyl-nitroanilide by HLE in the presence and absence of the compound to be tested. The procedure used is as follows. The following stock solutions are prepared.
1. a saline solution of HLE prepared from a composition containing 10% HLE with the remainder being sodium acetate (300 micrograms per ml) wherein the concentration was adjusted to give a change in absorption of 0.12 od units per minute in the assay in the absence derivative,
2. a dimethylsulfoxide solution of the nitroanilide peptide (2m mole),
3. tris-HCl buffer (0.2M,pH 8.0) and
4. a dimethylsulfoxide solution of the derivative to be tested at 20 times the desired final concentration.
The test hydrolysis solution was then prepared by adding 850 microliters buffer, 50 microliters derivative solution, 50 microliters peptide solution to a 1 cm. semi-micro cuvette. The cuvette was capped, slightly shaken and placed in the light chamber of a recording colorimeter where the increase in absorption at 410 nm. due to liberated nitroaniline was measured. Using this procedure, the one minute change in absorption of the test sample containing derivative was compared to the change in absorption in the absence of derivative. A 20% or more decrease in the rate of absorption was interpreted as a positive inhibition.

Consider `CCCCCCCCCCCCCCCCCCOCc1cc(=O)c(OCc2ccccc2)co1` [Example 11, 2-[(octadecyloxy)methyl]-5-(phenylmethoxy)-4Hpyran-4-one], for which the inhibition at 20 µM is 24%.
`CCCCCCCCCCCCCCOCc1cc(=O)c(O)co1` [Example 12, 5-hydroxy-2-[(tetradecyloxy)methyl]-4Hpyran-4-one] yielded an inhibition at 10 µM of 34% and an inhibition at 20 µM of 48%.
The compound `CCCCCCCCCCCCCCCCOCc1cc(=O)c(O)co1` [Example 13, 5-hydroxy-2-[(hexadecyloxy)methyl]-4Hpyran-4-one] showed an inhibition at 20 µM of 23%.
With `CCCCCCCCCCCCCCCCCCOCc1cc(=O)c(O)co1` [Example 14, 5-hydroxy-2-[(octadecyloxy)methyl]-4Hpyran-4-one], the inhibition at 10 µM is 46% and testing at 20 µM gave an inhibition of 50%.
In turn, `CCCCCCCCCCCCCCOCc1cc(=O)c(OC(=O)C(C)(C)C)co1` [Example 15, 4-oxo-2-[(tetradecyloxy)methyl]-4H pyran-5-yl-2,2-dimethylpropanoate] gave an inhibition at 10 µM of 81%, an inhibition at 20 µM of 88%, an inhibition at 0.2 µM of 60% and an inhibition at 0.05 µM of 38%.
In turn, `CCCCCCCCCCCCCCCCOCc1cc(=O)c(OC(=O)C(C)(C)C)co1` [Example 16, 2-[(hexadecyloxy)methyl]-4-oxo-4H pyran-5-yl-2,2-dimethylpropanoate] showed an inhibition at 10 µM of 87%, an inhibition at 1 µM of 69%, an inhibition at 20 µM of 89% and an inhibition at 0.2 µM of 52%. This compound came in with an inhibition at 0.05 µM of 27%.
Compound `CCCCCCCCCCCCCCCCOCc1cc(=O)c(OC(=O)C(C)C)co1` [Example 17, 2-[(hexadecyloxy)methyl]-4-oxo-4H pyran-5-yl-2-methylpropanoate] gave an inhibition at 1 µM of 88%, an inhibition at 0.2 µM of 81% and an inhibition at 0.05 µM of 61%.
The compound `CCCCCCCCCCCCCCCCOCc1cc(=O)c(OC(=O)C(C)C(C)C)co1` (centres unmarked) [Example 18, 2-[(hexadecyloxy)methyl]-4-oxo-4H pyran-5-yl-2,3-dimethylbutanoate] registered an inhibition at 10 µM of 48% and an inhibition at 20 µM of 59%.
For `CCCCCCCCCCCCCCCCOCc1cc(=O)c(OC(=O)CC(C)C)co1` [Example 19, 2-[(hexadecyloxy)methyl]-4-oxo-4H pyran-5-yl-3-methylbutansate] the same measures were 52% and 67%.
Take `CCCCCCCCCCCCCCCCCCOCc1cc(=O)c(OC(=O)C(C)(C)C)co1` [Example 20, 2-[(octadecyloxy)methyl] -4-oxo-4Hpyran-5-yl-2,2-dimethylpropanoate]: the inhibition at 10 µM came to 73%, the inhibition at 20 µM was 66% and the inhibition at 5 µM is 69%.
In the case of `CCCCCCCCCCCCCCCCOc1coc(COC2CCCCO2)cc1=O` (centres unmarked) [Example 21, 5-Hexadecyloxy-2-tetrahydropyrany/oxymethyl-4H pyran-4-one], the inhibition at 20 µM was found to be 23%.
Regarding `CCCCCCCCCCCCCCCCOc1coc(COC(=O)C(C)(C)C)cc1=O` [Example 23, 5-Hexadecyloxy-4-oxo-4Hpyran-2-hydroxymethyl-2,2-dimethylpropanoate], the inhibition at 10 µM is 62%, testing at 20 µM gave an inhibition of 65% and 5 µM produced 36% inhibition.
`CCCCCCCCCCCCCCCCOc1coc(C(=O)O)cc1=O` [Example 24, 5-Hexadecyloxy-2-carboxyl-4Hpyran-4-one]: 10 µM produced 83% inhibition, the inhibition at 20 µM is 86% and the inhibition at 5 µM came out at 84%.
